Results on two molecules are retold here after publication PMC5761851, “Application of a phenotypic drug discovery strategy to identify biological and chemical starting points for inhibition of TSLP production in lung epithelial cells” (PLoS ONE, 2018).

The subject of test [1] is COMT (catechol- O-methyl transferase). The experiment in a line: BioPrint panel: COMT (catechol- O-methyl transferase). The test is classed as biochemical. Conditions: 1 micromolar. From the text:
(§1) Supplement pone.0189247.s004.xlsx, sheet "Bioprint Selectivity Panel" | column: %

Another test has as its system sigma (non-selective). The experiment in a line: BioPrint panel: sigma (non-selective) (h) (agonist). The test is classed as binding, human. The settings on record: 1 micromolar.
Description: as §1

A further test deals with TNF-alpha. Nature of the test: BioPrint panel: TNF-alpha (h) (agonist). The settings on record: 1 micromolar. It is filed as binding, human.
Description: as §1

The target of a further test is T1, FLT-1 kinase (VEGFR1) (Homo sapiens, UniProt P17948).
T1 construct: purchased Eurofins Pharma Discovery Services (KinaseProfiler; Cerep BioPrint panel)
Nature of the test: BioPrint panel: FLT-1 kinase (h) (VEGFR1). The test is classed as biochemical. The settings on record: 1 micromolar, read-out: percentage of inhibition of activity.
Description: as §1

In a further test the target is T2, ERalpha (Homo sapiens, UniProt P03372).
T2 construct: purchased Eurofins Pharma Discovery Services (KinaseProfiler; Cerep BioPrint panel)
The experiment in a line: BioPrint panel: ERalpha (h) (agonist fluoligand). The test is classed as binding. Conditions: 1 micromolar, read-out: percentage of inhibition of activity.
Description: as §1

The next test addresses T3, ACE (Homo sapiens, UniProt P12821).
T3 construct: purchased Eurofins Pharma Discovery Services (KinaseProfiler; Cerep BioPrint panel)
Nature of the test: BioPrint panel: ACE (h). The test is classed as biochemical. The settings on record: 1 micromolar.
Description: as §1

The target in another test is T4, ERK2 (P42mapk) (Homo sapiens, UniProt P28482).
T4 construct: purchased Eurofins Pharma Discovery Services (KinaseProfiler; Cerep BioPrint panel)
Nature of the test: BioPrint panel: ERK2 (h) (P42mapk). It is filed as biochemical. The settings on record: 1 micromolar, read-out: percentage of inhibition of activity.
Description: as §1

For test [2], the target named is T5, xanthine oxidase/ superoxide O2- scavenging (Bos taurus, UniProt P80457).
T5 construct: purchased Eurofins Pharma Discovery Services (KinaseProfiler; Cerep BioPrint panel)
The experiment in a line: BioPrint panel: xanthine oxidase/ superoxide O2- scavenging. The test is classed as biochemical. The settings on record: 1 micromolar, read-out: percentage of inhibition of activity.
Description: as §1

A further test addresses T6, D2S (Homo sapiens, UniProt P14416).
T6 construct: purchased Eurofins Pharma Discovery Services (KinaseProfiler; Cerep BioPrint panel)
Nature of the test: BioPrint panel: D2S (h) (agonist). It is filed as binding. The settings on record: 1 micromolar, read-out: percentage of inhibition of activity.
Description: as §1

The next test concerns the target T7, 5-HT1A (Homo sapiens, UniProt P08908).
T7 construct: purchased Eurofins Pharma Discovery Services (KinaseProfiler; Cerep BioPrint panel)
Nature of the test: BioPrint panel: 5-HT1A (h) (agonist). The test is classed as binding. Conditions: 1 micromolar, read-out: percentage of inhibition of activity.
Description: as §1

A further test has as its target T8, acetylcholinesterase (Homo sapiens, UniProt P22303).
T8 construct: purchased Eurofins Pharma Discovery Services (KinaseProfiler; Cerep BioPrint panel)
The experiment in a line: BioPrint panel: acetylcholinesterase (h). It is filed as biochemical. Conditions: 1 micromolar, read-out: percentage of inhibition of activity.
Description: as §1

In another test the target is T9, ZAP-70 (Homo sapiens, UniProt P43403).
T9 construct: purchased Eurofins Pharma Discovery Services (KinaseProfiler; Cerep BioPrint panel)
T9 sequence (P43403 1-619): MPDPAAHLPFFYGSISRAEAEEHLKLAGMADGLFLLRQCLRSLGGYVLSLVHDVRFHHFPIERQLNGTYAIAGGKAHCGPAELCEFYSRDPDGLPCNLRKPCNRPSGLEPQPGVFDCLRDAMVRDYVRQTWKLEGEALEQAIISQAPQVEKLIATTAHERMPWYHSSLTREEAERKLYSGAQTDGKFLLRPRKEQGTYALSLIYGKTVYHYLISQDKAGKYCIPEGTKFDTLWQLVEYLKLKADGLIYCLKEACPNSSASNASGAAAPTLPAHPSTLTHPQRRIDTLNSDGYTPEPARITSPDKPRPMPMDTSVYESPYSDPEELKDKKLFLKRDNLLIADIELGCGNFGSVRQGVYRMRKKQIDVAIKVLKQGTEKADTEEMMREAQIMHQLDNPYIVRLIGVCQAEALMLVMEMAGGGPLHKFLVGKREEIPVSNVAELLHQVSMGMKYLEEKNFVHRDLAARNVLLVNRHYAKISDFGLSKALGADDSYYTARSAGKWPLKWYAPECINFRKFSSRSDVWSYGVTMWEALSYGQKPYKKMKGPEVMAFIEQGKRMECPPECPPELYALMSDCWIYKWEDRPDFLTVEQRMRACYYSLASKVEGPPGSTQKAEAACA
Nature of the test: BioPrint panel: ZAP70 kinase (h). The test is classed as biochemical. Conditions: 1 micromolar, read-out: percentage of inhibition of activity.
Description: as §1

For another test, the target named is T10, A2B (Homo sapiens, UniProt P29275).
T10 construct: purchased Eurofins Pharma Discovery Services (KinaseProfiler; Cerep BioPrint panel)
The experiment in a line: BioPrint panel: A2B (h) (antagonist). The test is classed as binding. The settings on record: 1 micromolar, read-out: percentage of inhibition of activity.
Description: as §1

Another test deals with T11, 5-HT2A (Homo sapiens, UniProt P28223).
T11 construct: purchased Eurofins Pharma Discovery Services (KinaseProfiler; Cerep BioPrint panel)
Nature of the test: BioPrint panel: 5-HT2A (h) (agonist). Conditions: 1 micromolar, read-out: percentage of inhibition of activity. It is filed as binding.
Description: as §1

In a further test the target is T12, D3 (Homo sapiens, UniProt P35462).
T12 construct: purchased Eurofins Pharma Discovery Services (KinaseProfiler; Cerep BioPrint panel)
The experiment in a line: BioPrint panel: D3 (h) (antagonist). The test is classed as binding. Conditions: 1 micromolar, read-out: percentage of inhibition of activity.
Description: as §1

In the next test the test system is Guanylyl cylcase. Nature of the test: BioPrint panel: Guanylyl cylcase (activator). The test is classed as biochemical. Conditions: 1 micromolar.
Description: as §1

Another test relates to NMDA. The experiment in a line: BioPrint panel: NMDA (antagonist). It is filed as binding. The settings on record: 1 micromolar.
Description: as §1

For a further test, the target named is T13, Ca2+ channel (N) (Rattus norvegicus, UniProt Q02294).
T13 construct: purchased Eurofins Pharma Discovery Services (KinaseProfiler; Cerep BioPrint panel)
The experiment in a line: BioPrint panel: Ca2+ channel (N) (antagonist). It is filed as binding. The settings on record: 1 micromolar, read-out: percentage of inhibition of activity.
Description: as §1

The target of another test is T14, MMP-9 (Homo sapiens, UniProt P14780).
T14 construct: purchased Eurofins Pharma Discovery Services (KinaseProfiler; Cerep BioPrint panel)
Nature of the test: BioPrint panel: MMP-9 (h). It is filed as biochemical. Conditions: 1 micromolar, read-out: percentage of inhibition of activity.
Description: as §1

A further test relates to Na+ channel (site 2). Nature of the test: BioPrint panel: Na+ channel (site 2) (antagonist). It is filed as binding. Conditions: 1 micromolar.
Description: as §1

A further test concerns the target T15, PPARgamma (Homo sapiens, UniProt P37231).
T15 construct: purchased Eurofins Pharma Discovery Services (KinaseProfiler; Cerep BioPrint panel)
Nature of the test: BioPrint panel: PPARgamma (h) (agonist). Conditions: 1 micromolar, read-out: percentage of inhibition of activity. The test is classed as binding.
Description: as §1

The next test deals with SKCa channel. The experiment in a line: BioPrint panel: SKCa channel (antagonist). It is filed as binding. The settings on record: 1 micromolar.
Description: as §1

A further test deals with T16, EP2 (Homo sapiens, UniProt P43116).
T16 construct: purchased Eurofins Pharma Discovery Services (KinaseProfiler; Cerep BioPrint panel)
Nature of the test: BioPrint panel: EP2 (h) (agonist). The test is classed as binding. The settings on record: 1 micromolar, read-out: percentage of inhibition of activity.
Description: as §1

For the next test, the target named is T17, Abl (Homo sapiens, UniProt P00519).
T17 construct: purchased Eurofins Pharma Discovery Services (KinaseProfiler; Cerep BioPrint panel)
The experiment in a line: BioPrint panel: Abl kinase (h). Conditions: 1 micromolar, read-out: percentage of inhibition of activity. The test is classed as biochemical.
Description: as §1

Another test deals with T18, beta 1 (Homo sapiens, UniProt P08588).
T18 construct: purchased Eurofins Pharma Discovery Services (KinaseProfiler; Cerep BioPrint panel)
The experiment in a line: BioPrint panel: beta 1 (h) (agonist). It is filed as binding. The settings on record: 1 micromolar, read-out: percentage of inhibition of activity.
Description: as §1

A further test deals with CHO-K1 cells. Nature of the test: CHO-K1 viability (ATPlite). The test is classed as cell-based. Conditions: 25 μM. The method, then: The viability of NHBE and CHO-K1 cells was quantified using ATP as an indirect read out of the potential cytotoxicity of the compounds. […] Plates were shaken and covered with aluminium foil for 25 min. Luminescence was measured in an Envision reader (Perkin Elmer). Evaluation of viability in CHO-K1 cells was used as an internal compound cytotoxicity standard across cellular assays. […] The plates were incubated for 24 h at 37°C in 5% CO2. After the incubation period, the culture medium was removed and washed with 100 μl of DPBS. Test compounds were dissolved and serially diluted in 100% DMSO. A final 1/100 dilution of each concentration was performed using F12 culture medium with 0.5% FBS. A volume of 100 μl culture medium containing the compounds or 1% DMSO (for control wells) was added to the wells containing the cells and the plate was incubated again 24h. After 24h of compound exposure, cells were washed with DPBS. Then, 100 μl of PBS were added, followed by the addition of 100 μl of ATPlite™ reagent. The plate was shaken for 25 minutes using a microtiter plate shaker. Luminescence was measured using a Luminoskan Ascent luminometer (Thermo Fisher Scientific).
For CHO-K1 viability assays, a standard curve of cells was included in the plate. Luminescence values versus cell number were plotted and the data adjusted to a linear equation. Luminescence values of the samples were interpolated to obtain number of cells. IC50 values were obtained by non-linear regression using Activity Base software (IDBS) and a four-parameter log equation.

T15 sequence (P37231 whole entry): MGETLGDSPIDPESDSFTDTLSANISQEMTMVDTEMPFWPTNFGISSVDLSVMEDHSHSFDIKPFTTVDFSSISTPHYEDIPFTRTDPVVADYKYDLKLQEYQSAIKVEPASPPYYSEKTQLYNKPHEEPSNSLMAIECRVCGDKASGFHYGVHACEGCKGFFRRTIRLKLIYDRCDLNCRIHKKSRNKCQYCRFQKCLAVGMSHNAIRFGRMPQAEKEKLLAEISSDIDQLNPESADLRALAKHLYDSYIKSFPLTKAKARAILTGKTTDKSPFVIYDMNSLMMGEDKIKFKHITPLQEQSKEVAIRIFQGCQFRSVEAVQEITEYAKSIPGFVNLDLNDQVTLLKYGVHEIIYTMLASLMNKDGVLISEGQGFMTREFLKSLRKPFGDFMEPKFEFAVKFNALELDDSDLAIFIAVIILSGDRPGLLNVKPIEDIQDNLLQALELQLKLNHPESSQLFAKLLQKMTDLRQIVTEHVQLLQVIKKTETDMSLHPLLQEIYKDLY
T5 sequence (P80457 whole entry): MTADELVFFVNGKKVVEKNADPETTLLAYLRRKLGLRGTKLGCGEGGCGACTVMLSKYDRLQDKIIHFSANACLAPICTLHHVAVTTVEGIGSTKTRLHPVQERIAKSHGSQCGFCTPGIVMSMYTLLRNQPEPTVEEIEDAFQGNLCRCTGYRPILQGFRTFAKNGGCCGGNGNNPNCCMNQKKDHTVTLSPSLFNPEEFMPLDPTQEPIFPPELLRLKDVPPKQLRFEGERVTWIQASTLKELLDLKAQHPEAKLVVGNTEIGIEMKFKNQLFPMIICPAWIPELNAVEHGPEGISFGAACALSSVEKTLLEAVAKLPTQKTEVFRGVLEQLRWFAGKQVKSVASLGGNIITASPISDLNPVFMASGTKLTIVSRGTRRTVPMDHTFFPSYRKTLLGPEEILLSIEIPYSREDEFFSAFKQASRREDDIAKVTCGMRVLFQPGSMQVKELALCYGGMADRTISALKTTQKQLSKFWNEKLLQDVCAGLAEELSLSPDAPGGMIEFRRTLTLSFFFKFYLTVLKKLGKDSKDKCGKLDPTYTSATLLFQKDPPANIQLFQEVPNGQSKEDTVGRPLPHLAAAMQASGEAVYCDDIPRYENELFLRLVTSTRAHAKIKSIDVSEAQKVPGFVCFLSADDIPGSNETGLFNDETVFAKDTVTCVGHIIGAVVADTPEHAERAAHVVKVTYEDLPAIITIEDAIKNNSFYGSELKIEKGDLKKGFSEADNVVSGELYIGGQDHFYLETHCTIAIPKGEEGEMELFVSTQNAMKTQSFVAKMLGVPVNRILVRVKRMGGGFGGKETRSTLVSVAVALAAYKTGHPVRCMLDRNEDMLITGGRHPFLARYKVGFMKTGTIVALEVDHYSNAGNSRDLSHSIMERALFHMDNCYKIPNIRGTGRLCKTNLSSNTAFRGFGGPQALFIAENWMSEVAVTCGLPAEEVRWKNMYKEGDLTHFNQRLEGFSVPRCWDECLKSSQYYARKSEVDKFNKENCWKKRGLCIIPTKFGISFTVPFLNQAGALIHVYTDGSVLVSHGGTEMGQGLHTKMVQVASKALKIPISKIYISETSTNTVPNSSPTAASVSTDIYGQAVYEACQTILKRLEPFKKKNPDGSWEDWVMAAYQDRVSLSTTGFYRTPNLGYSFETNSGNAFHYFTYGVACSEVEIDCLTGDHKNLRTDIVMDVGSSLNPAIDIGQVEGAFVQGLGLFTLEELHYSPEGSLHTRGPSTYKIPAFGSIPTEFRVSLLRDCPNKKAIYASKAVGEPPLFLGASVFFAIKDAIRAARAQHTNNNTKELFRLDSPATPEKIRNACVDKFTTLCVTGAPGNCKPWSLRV
T3 sequence (P12821 30-1306): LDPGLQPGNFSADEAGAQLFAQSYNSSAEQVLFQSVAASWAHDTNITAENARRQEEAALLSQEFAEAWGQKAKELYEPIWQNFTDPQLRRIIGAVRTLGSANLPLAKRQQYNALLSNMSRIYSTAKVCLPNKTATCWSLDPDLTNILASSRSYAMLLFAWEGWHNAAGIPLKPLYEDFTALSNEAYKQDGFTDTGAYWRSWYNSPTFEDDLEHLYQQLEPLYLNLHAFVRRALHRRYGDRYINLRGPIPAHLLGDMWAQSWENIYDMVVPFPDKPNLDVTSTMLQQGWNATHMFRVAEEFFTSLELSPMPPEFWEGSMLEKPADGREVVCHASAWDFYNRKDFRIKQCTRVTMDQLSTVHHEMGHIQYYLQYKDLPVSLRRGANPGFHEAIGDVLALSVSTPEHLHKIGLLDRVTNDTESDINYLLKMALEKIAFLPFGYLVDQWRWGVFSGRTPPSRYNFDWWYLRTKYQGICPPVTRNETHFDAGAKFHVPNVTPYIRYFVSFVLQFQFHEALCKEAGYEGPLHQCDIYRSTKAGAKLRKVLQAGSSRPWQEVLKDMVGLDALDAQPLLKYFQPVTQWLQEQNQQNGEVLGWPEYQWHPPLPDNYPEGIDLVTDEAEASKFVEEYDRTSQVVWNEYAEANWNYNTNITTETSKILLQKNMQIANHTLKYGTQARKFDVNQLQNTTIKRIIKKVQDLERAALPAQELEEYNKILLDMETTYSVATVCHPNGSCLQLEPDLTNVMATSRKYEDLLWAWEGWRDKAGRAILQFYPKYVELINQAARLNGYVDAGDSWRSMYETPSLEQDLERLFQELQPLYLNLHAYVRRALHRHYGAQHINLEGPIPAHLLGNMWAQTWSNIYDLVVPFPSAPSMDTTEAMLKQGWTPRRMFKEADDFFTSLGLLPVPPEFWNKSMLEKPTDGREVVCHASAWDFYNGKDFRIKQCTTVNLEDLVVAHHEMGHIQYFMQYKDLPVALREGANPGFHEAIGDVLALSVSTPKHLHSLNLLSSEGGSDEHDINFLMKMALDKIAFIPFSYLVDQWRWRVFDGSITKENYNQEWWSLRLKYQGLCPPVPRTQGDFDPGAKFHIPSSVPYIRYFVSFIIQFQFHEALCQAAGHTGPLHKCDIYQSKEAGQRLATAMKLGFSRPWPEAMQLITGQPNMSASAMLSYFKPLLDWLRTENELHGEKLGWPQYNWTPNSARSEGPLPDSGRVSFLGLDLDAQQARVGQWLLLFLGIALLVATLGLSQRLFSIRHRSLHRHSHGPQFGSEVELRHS
T18 sequence (P08588 whole entry): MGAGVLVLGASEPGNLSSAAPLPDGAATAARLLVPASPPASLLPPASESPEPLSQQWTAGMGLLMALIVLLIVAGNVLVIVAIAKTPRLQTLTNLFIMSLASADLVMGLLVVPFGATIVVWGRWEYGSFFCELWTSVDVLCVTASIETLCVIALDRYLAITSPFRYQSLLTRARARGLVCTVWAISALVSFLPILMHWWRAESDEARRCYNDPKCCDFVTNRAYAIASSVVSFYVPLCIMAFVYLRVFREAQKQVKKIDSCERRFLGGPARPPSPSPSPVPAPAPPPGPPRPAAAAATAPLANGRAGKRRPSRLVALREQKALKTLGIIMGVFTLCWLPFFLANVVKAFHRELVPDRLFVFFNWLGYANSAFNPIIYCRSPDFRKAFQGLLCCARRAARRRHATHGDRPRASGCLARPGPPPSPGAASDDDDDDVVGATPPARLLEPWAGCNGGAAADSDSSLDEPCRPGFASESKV
T6 sequence (P14416 1-414 isoform P14416-2): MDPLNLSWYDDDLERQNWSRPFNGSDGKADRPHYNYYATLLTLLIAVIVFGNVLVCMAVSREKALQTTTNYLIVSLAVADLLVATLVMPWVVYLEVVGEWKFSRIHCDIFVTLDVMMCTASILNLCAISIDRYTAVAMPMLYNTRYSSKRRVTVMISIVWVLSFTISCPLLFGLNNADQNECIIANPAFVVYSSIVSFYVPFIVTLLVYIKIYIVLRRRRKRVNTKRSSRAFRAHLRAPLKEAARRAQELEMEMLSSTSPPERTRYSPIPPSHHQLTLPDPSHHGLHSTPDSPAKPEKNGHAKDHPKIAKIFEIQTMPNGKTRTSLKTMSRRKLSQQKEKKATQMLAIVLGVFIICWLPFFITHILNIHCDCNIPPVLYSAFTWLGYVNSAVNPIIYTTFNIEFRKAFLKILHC
T12 sequence (P35462 whole entry): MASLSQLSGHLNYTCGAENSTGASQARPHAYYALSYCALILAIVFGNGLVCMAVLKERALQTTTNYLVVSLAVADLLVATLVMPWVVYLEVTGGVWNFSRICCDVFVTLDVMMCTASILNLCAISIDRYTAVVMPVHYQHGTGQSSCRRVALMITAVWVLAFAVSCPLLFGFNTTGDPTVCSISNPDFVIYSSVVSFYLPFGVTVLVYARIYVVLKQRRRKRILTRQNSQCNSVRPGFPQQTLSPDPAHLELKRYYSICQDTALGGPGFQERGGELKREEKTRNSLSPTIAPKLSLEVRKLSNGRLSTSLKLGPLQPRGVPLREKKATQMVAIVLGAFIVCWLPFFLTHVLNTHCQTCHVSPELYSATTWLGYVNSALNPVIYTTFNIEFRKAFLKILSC
T14 sequence (P14780 94-707): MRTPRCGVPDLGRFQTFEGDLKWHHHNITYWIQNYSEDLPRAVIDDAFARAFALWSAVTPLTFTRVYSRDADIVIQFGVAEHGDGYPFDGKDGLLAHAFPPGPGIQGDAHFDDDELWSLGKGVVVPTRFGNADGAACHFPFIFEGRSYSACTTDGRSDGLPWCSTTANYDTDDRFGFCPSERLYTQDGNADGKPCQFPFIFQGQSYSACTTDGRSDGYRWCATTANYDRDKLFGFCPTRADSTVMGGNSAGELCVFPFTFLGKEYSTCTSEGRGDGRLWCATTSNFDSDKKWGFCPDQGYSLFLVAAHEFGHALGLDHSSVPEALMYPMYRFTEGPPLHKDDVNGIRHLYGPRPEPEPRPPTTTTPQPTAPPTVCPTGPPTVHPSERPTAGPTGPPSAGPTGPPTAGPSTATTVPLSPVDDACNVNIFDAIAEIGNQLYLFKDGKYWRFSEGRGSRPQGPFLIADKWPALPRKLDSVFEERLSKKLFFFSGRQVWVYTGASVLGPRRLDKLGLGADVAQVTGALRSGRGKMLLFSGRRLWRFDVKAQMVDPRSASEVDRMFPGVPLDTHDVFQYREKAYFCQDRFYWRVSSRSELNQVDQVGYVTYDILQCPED

Regarding `Cn1cc(-c2cccc(-c3nc(C(=O)NC4C5CC6CC4CC(O)(C6)C5)c(N)nc3N)c2)cn1` (centres unmarked) [compound 4], the “percentage of inhibition of activity” value in test [1] is on record as “INTER”; in the test with sigma (non-selective) it was 5.9%; with TNF-alpha, -2.1%; on ACE it was “INTER”; with Guanylyl cylcase, 0%; with NMDA it was -6.8%. Further, the results for the “percentage of inhibition of activity” value in the test on Na+ channel (site 2) and in the test on SKCa channel were 29.7% and -10.2%, respectively. Further, the inhibition at 1 µM on FLT-1 kinase (VEGFR1) was -4.8%; at ERalpha, -10.3%; at ERK2 (P42mapk), 14.3%; in [2], -15.3%; at D2S, -1.5%; on 5-HT1A, -1.1%. Also, the inhibition at 1 µM was 6.2% on acetylcholinesterase; 5.5% on ZAP-70; -3% at A2B; 2.4% at 5-HT2A; -4.2% at D3; -2.7% at Ca2+ channel (N). Moreover, the inhibition at 1 µM is -4.4% on MMP-9; 3.2% on PPARgamma; -23.9% at EP2; -4.6% on Abl; -1.8% on beta 1.
For the molecule `COc1c(NC(=O)c2ccc(C)c(-c3nnc4c(NCC(C)(C)C)nccn34)c2)cc(C(C)(C)C)cc1NS(C)(=O)=O` [compound 7, reference compound], the “Inhibition of CHO viability at [25 μM] % Inhibition ± SD” value in the test with CHO-K1 cells worked out at 0.39 ± 11%.
